Laboratory results from patent US20220324835A1 (Nurix Therapeutics, Inc., priority 2018, published 2022).

Legend:
[1] = molecular target: T1, Cbl-b (Homo sapiens, UniProt Q13191); assay: Cbl-b inhibition assay (Cbl-b activity assay, FRET, Biological Example 1; 100 mM NaCl, 60 nM Src kinase); format: biochemical; details: upper bound stated in text lists; read-out: IC50 values in the Cbl-b inhibition assay of Biological Example 1
Method in brief: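 N-terminally biotinylated Avi-tagged Cbl-b was mixed with Src kinase, UbcH5B covalently conjugated to Bodipy-fluorescein ubiquitin, and streptavidin-terbium. Src phosphorylation lets Cbl-b bind UbcH5B-Ub, giving terbium-fluorescein FRET; inhibition is read as loss of FRET signal.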

[2] = molecular target: T1, Cbl-b; assay: Cbl-b activity assay (Cbl-b inhibition assay), TR-FRET of Cbl-b interaction with UbcH5B-Ub; format: biochemical; details: assay buffer with 100 mM NaCl, 60 nM Src kinase; read-out: Cbl-b activity IC50
Method in brief: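 UbcH5B (C85K) conjugated to N-terminally Bodipy-Fluorescein-labeled ubiquitin served as the fluorescent partner. After compound preincubation, Src kinase (60 nM) with 1 mM ATP and 5 mM MgCl2 (final) was added for 1.5 h, followed by a further 1 h incubation. Some values were obtained with 50 mM NaCl and 30 nM Src.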

[3] = molecular target: Cbl-b (residues 36-427) (Homo sapiens, UniProt Q13191); assay: Cbl-b binding assay (SPR, Biacore T200); details: 20° C., 1:1 binding model
Method in brief: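 Steps: capture protein on NeutrAvidin surface; inject compound dilutions (8 or 10 points from 100 or 50 μM) 50 s; allow 90-180 s dissociation; regenerate 20 s with 0.3 M NaCl. Runs at 20° C in HEPES pH 7.5/100 mM NaCl/2% DMSO; 1:1 fitting.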

T1 sequence (Q13191 36-427): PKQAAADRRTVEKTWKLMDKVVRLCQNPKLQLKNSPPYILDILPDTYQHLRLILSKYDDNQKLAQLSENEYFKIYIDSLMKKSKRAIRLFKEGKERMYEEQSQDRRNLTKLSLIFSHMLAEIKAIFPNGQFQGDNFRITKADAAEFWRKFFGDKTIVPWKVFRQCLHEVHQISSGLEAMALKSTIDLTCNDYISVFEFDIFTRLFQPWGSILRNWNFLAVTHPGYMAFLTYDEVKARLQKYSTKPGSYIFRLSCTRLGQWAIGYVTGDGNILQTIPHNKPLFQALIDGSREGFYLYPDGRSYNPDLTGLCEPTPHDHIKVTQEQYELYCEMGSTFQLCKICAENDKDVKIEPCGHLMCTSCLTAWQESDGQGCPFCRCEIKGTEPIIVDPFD
Cbl-b (residues 36-427), sequence (Q13191 36-427): as above

For `CNCCNC(=O)c1ccnc(C(=O)Nc2cccc([C@H](C)Cc3nncn3C)c2)c1` [Compound 244, (R)-N2-(3-(1-(4-methyl-4H-1,2,4-triazol-3-yl)propan-2-yl)phenyl)-N4-(2-(methylamino)ethyl)pyridine-2,4-dicarboxamide], the IC50 [1] was ≤ 10 µM, the IC50 [2] was 1 to 3 µM and the Kd [3] was 1 to 3 µM.
In the case of `C[C@H](Cc1nncn1C)c1cccc(NC(=O)c2cc(C(=O)N3CCC(CO)C3)ccn2)c1` (stereo partly drawn) [Compound 245, 4-(3-(hydroxymethyl)pyrrolidine-1-carbonyl)-N-(3-((R)-1-(4-methyl-4H-1,2,4-triazol-3-yl)propan-2-yl)phenyl)picolinamide], the IC50 [1] is reported as ≤ 10 µM, the IC50 [2] is reported as 1 to 3 µM and the Kd [3] is reported as 3 to 10 µM.
In the case of `C[C@H](Cc1nncn1C)c1cccc(NC(=O)c2cc(C(=O)N3C[C@@H](F)[C@@H](O)C3)ccn2)c1` [Compound 246, cis-4-(3-fluoro-4-hydroxypyrrolidine-1-carbonyl)-N-(3-((R)-1-(4-methyl-4H-1,2,4-triazol-3-yl)propan-2-yl)phenyl)picolinamide], the IC50 [1] is reported as ≤ 10 µM, the IC50 [2] is reported as 1 to 3 µM and the Kd [3] is reported as 1 to 3 µM.
In the case of `C[C@H](Cc1nncn1C)c1cccc(NC(=O)c2cc(C(=O)N[C@@H]3CCNC3)ccn2)c1` [Compound 247, N2-[3-[(2R)-1-(4-methyl-4H-1,2,4-triazol-3-yl)propan-2-yl]phenyl]-N4-[(3R)-pyrrolidin-3-yl]pyridine-2,4-dicarboxamide], the IC50 [1] is reported as ≤ 10 µM, the IC50 [2] is reported as 3 to 10 µM and the Kd [3] is reported as 3 to 10 µM.
In the case of `C[C@H](Cc1nncn1C)c1cccc(NC(=O)c2cc(C(=O)N[C@H]3CCNC3)ccn2)c1` [Compound 248, N2-(3-((R)-1-(4-methyl-4H-1,2,4-triazol-3-yl)propan-2-yl)phenyl)-N4-((s)-pyrrolidin-3-yl)pyridine-2,4-dicarboxamide], the IC50 [1] is reported as ≤ 10 µM, the IC50 [2] is reported as 3 to 10 µM and the Kd [3] is reported as 3 to 10 µM.
`CN[C@@H]1CCN(C(=O)c2ccnc(C(=O)Nc3cccc([C@H](C)Cc4nncn4C)c3)c2)C1` [Compound 249, N-(3-((R)-1-(4-methyl-4H-1,2,4-triazol-3-yl)propan-2-yl)phenyl)-4-((R)-3-(methylamino)pyrrolidine-1-carbonyl)picolinamide] was tested, and the IC50 [1] was ≤ 10 µM, the IC50 [2] was 1 to 3 µM and the Kd [3] was 1 to 3 µM.
With `CN[C@H]1CCN(C(=O)c2ccnc(C(=O)Nc3cccc([C@H](C)Cc4nncn4C)c3)c2)C1` [Compound 250, N-[3-[(2R)-1-(4-methyl-4H-1,2,4-triazol-3-yl)propan-2-yl]phenyl]-4-[(3S)-3-(methylamino)pyrrolidine-1-carbonyl]pyridine-2-carboxamide] the IC50 [1] was ≤ 10 µM, the IC50 [2] was 1 to 3 µM and the Kd [3] was 1 to 3 µM.
For `CC(Cc1nccn1C)c1cccc(NC(=O)c2cc(C(=O)N3CC[C@H](O)C3)ccn2)c1` (stereo partly drawn) [Compound 252, 4-((S)-3-hydroxypyrrolidine-1-carbonyl)-N-(3-(1-(1-methyl-s1H-imidazol-2-yl)propan-2-yl)phenyl)picolinamide], the IC50 [1] was ≤ 10 µM, the IC50 [2] was 3 to 10 µM and the Kd [3] was 1 to 3 µM.
`C[C@H](Cc1nccn1C)c1cccc(NC(=O)c2cc(C(=O)N3CC[C@H](O)C3)ccn2)c1` [Compound 252a, 4-((S)-3-hydroxypyrrolidine-1-carbonyl)-N-(3-((R)-1-(1-methyl-1H-imidazol-2-yl)propan-2-yl)phenyl)picolinamide] was tested, and the IC50 [1] was ≤ 10 µM, the IC50 [2] was 1 to 3 µM and the Kd [3] was 3 to 10 µM.
For `C[C@H](Cc1nccn1C)c1cccc(NC(=O)c2cc(C(=O)N3C[C@@H](O)C[C@H]3C)ccn2)c1` [Compound 253, 4-((2R,4S)-4-hydroxy-2-methylpyrrolidine-1-carbonyl)-N-(3-((R)-1-(1-methyl-1H-imidazol-2-yl)propan-2-yl)phenyl)picolinamide], the IC50 [1] was ≤ 10 µM, the IC50 [2] was 3 to 10 µM and the Kd [3] was 3 to 10 µM.
`C[C@H](Cc1nncn1C)c1cccc(NC(=O)c2cc(C(=O)N3CC[C@H](O)C3)ccc2F)c1` [Compound 254, 2-fluoro-5-((S)-3-hydroxypyrrolidine-1-carbonyl)-N-(3-((R)-1-(4-methyl-4H-1,2,4-triazol-3-yl)propan-2-yl)phenyl)benzamide] was tested, and the IC50 [1] was ≤ 10 µM, the IC50 [2] was 1 to 3 µM and the Kd [3] was 3 to 10 µM.
`CC(C)c1nccc2c1CN(c1cccc([C@H](C)Cc3nncn3C)c1)C2=O` [Compound 259, (R)-4-isopropyl-2-(3-(1-(4-methyl-4H-1,2,4-triazol-3-yl)propan-2-yl)phenyl)-2,3-dihydro-1H-pyrrolo[3,4-c]pyridin-1-one] was tested, and the IC50 [1] was ≤ 1 µM, the IC50 [2] was 0.301 to 1 µM and the Kd [3] was 1 to 3 µM.
`C[C@H](Cc1ncn(C)n1)c1cccc(N2Cc3c(cccc3C(F)(F)F)C2=O)c1` [Compound 263, (R)-2-(3-(1-(1-methyl-1H-1,2,4-triazol-3-yl)propan-2-yl)phenyl)-4-(trifluoromethyl)isoindolin-1-one] was tested, and the IC50 [1] was ≤ 10 µM, the IC50 [2] was 3 to 10 µM and the Kd [3] was 3 to 10 µM.
With `C[C@H](Cc1ncnn1C)c1cccc(N2Cc3c(cccc3C(F)(F)F)C2=O)c1` [Compound 264, (R)-2-(3-(1-(2-methyl-2H-1,2,4-triazol-3-yl)propan-2-yl)phenyl)-4-(trifluoromethyl)isoindolin-1-one] the IC50 [1] was ≤ 10 µM, the IC50 [2] was 3 to 10 µM and the Kd [3] was > 10 µM.
`C[C@H](Cc1nnco1)c1cccc(N2Cc3c(cccc3C(F)(F)F)C2=O)c1` [Compound 266, (R)-2-(3-(1-(1,3,4-oxadiazol-2-yl)propan-2-yl)phenyl)-4-(trifluoromethyl)isoindolin-1-one] was tested, and the IC50 [1] was ≤ 10 µM, the IC50 [2] was 3 to 10 µM and the Kd [3] was > 10 µM.
In the case of `C[C@H](Cc1nccn1C)c1cccc(N2Cc3c(cccc3C(F)(F)F)C2=O)c1` [Compound 267a, (R)-2-(3-(1-(1-methyl-1H-imidazol-2-yl)propan-2-yl)phenyl)-4-(trifluoromethyl)isoindolin-1-one], the IC50 [1] is reported as ≤ 10 µM, the IC50 [2] is reported as 1 to 3 µM and the Kd [3] is reported as 3 to 10 µM.
With `CC(Cc1n[nH]cc1CO)c1cccc(N2Cc3c(cccc3C(F)(F)F)C2=O)c1` (stereo not drawn) [Compound 271, 2-(3-(1-(4-(hydroxymethyl)-1H-pyrazol-3-yl)propan-2-yl)phenyl)-4-(trifluoromethyl)isoindolin-1-one] the IC50 [1] was ≤ 10 µM, the IC50 [2] was 3 to 10 µM and the Kd [3] was 3 to 10 µM.
With `C[C@H](Cc1nncn1C)c1cccc(N2Cc3c(cc(C(=O)O)cc3C(F)(F)F)C2=O)c1` [Compound 273, (R)-2-(3-(1-(4-methyl-4H-1,2,4-triazol-3-yl)propan-2-yl)phenyl)-3-oxo-7-(trifluoromethyl)isoindoline-5-carboxylic acid] the IC50 [1] was ≤ 10 µM, the IC50 [2] was 1 to 3 µM and the Kd [3] was 3 to 10 µM.
In the case of `C[C@H](Cc1nncn1C)c1cc(N2Cc3c(cccc3C(F)(F)F)C2=O)ccc1F` [Compound 280, 2-[4-fluoro-3-[(1R)-1-methyl-2-(4-methyl-1,2,4-triazol-3-yl)ethyl]phenyl]-4-(trifluoromethyl)isoindolin-1-one], the IC50 [1] is reported as ≤ 10 µM, the IC50 [2] is reported as 3 to 10 µM and the Kd [3] is reported as 1 to 3 µM.
`C[C@@H](Cc1nncn1C)c1cc(F)cc(N2Cc3c(cccc3C(F)(F)F)C2=O)c1` [Compound 281b, 2-[3-Fluoro-5-[(1S)-1-methyl-2-(4-methyl-1,2,4-triazol-3-yl)ethyl]phenyl]-4-(trifluoromethyl)isoindolin-1-one] was tested, and the IC50 [1] was ≤ 10 µM, the IC50 [2] was 3 to 10 µM and the Kd [3] was 0.1 to 0.3 µM.
